Data taken from patent publication US6977254B2, “Hydroxy cyclohexenyl phenyl carboxamides tocolytic oxytocin receptor antagonists” (Wyeth, priority 2001, dated 2005).

Target: T1, human V2 vasopressin receptor subtype (Homo sapiens, UniProt P30518)
T1 construct: host or cells: CHO cells, stably transfected (pZeoSV vector); membranes
Assay: Vasopressin binding in CHO cell membranes expressing human vasopressin V2 subtype receptors ([3H]arginine vasopressin)
Settings: 100 nM, value without parentheses
Text: Vasopressin Binding in Chinese Hamster Ovary Cell Membranes Expressing Human Vasopressin V2 Subtype Receptors
Chinese Hamster Ovary (CHO) cells stably transfected with the human V2 subtype receptors were obtained from M. Thibonnier, Case Western Reserve University School of Medicine, Cleveland, Ohio.
A. Passaging and Amplification of Cells:
CHO cells transfected with the human vasopressin V2 subtype receptors obtained from M. Thibonnier (pZeoSV vector) are allowed to grow to confluency (approx. >90%) in T-150 flasks under sterile conditions, in a cell culture medium of F-12 Nutrient Mixture (HAM) with L-glutamine (Gibco Cat. #11765-054) containing 15 mM HEPES (Gibco Cat. #15630-080), 1% antibiotic/antimycotic (add 5 mL 100×, Gibco Cat. #15240-062 per 500 mL F-12), 250 μg/mL Zeocin (add 1.25 mL of 100 mg/mL Invitrogen R-250-01 per 500 mL F-12) and 10% Fetal Bovine Serum (Qualified, heat inactivated, Gibco Cat. #16140-063). The medium is removed by aspiration and the cells washed with 10 mL of Hank's Balanced Salt solution (Gibco Cat. #14175-095). The salt solution is removed by aspiration and the cells trypsinized with 5 mL of trypsin-EDTA (0.05% trypsin, 0.53 mM EDTA-4Na, Gibco Cat. #25300-070) for 1 min. The trypsin is removed by aspiration and the cells dislodged by tapping. Cell Culture medium (e.g. 30 mL for 1:30 split) is immediately added and mixed well to inactivate trypsin. 1 mL of detached cells is added to new culture flasks containing fresh Cell Culture medium (e.g. into 25 mL per T-150 flask), and mixed gently. The cells are incubated at 37° C. in 5% CO2. The medium is changed at 3 to 4 day interval (or as appropriate). The cells grow to confluency (approx. >75%-95%) within 7-8 days. All steps are done under sterile conditions.
The cells are washed twice gently with Hank's Balanced Salt solution (e.g. use 10 mL per T-150 flask). The excess solution is removed and the cells bathed for 15-30 min. in an enzyme-free Cell Dissociation Buffer (e.g. use 8 mL Hank's Based, Gibco Cat. #13150-016 per T-150 flask) until cells are loosened. The contents are transferred to centrifuge tubes (50 mL size) kept in ice bath. All subsequent steps are done at 4° C. The tubes are centrifuged at 300×g for 15 min (1380 rpm on SORVAL, Model RT6000D, using rotor for 50 mL tubes). The supernatant is discarded and the cells suspended in homogeneizing buffer(10 mM Tris-HCl containing 0.25 M sucrose and 1 mM EDTA, pH 7.4) ensuring that the volume of the buffer is about ten times the volume of the cell pellet. The cells are pooled into a centrifuge tube (50 mL) and homogenized with Polytron at setting 6 for 10 sec. The homogenate is transferred into a Potter-Elvjehm homogeneizer and homogenized with 3 strokes. The homogenate is centrifuged at 1500×g for 60 min at 4° C. (3100 rpm using SORVAL, model RT6000D, using rotor for 50 mL tubes). The pellet is discarded. The supernatant is centrifuged at 100,000×g for 60 min. at 4° C. (Beckman L8-80M ultracentrifuge; spin at 37,500 rpm with rotor type 70 Ti for 50 mL tubes; 38,000 rpm with type 80Ti for 15 mL tubes; or 35,800 rpm with rotor type 45Ti). The supernantant is discarded and the pellet suspended in 3 to 4 mL of Tris buffer (50 mM TRIS-HCl, pH 7.4). The protein content is estimated by the Bradford or Lowry method. The volume of the membrane suspension is adjusted with the membrane buffer (50 mM Tris-HCl containing 0.1% BSA and 0.1 mM PMSF) to give 3.0 mg/mL (or as appropriate) of protein. The membranes are aliquoted and stored at −70° C.
C. Radioligand Binding Assay:
In wells of a 96-well format microtiter plate, is added 90, 110 or 130 μL (to make up a final volume of 200 μL) of assay buffer containing 50 mM of Tris-HCl (pH 7.4), […], 1 mg % aprotinin, 1 mg % leupeptin, 2 mg % 1,10-phenanthroline, 10 mg % trypsin inhibitor, and 0.1 mM PMSF. The inhibitors are added on the day of the experiment. […]

T1 sequence (P30518 whole entry): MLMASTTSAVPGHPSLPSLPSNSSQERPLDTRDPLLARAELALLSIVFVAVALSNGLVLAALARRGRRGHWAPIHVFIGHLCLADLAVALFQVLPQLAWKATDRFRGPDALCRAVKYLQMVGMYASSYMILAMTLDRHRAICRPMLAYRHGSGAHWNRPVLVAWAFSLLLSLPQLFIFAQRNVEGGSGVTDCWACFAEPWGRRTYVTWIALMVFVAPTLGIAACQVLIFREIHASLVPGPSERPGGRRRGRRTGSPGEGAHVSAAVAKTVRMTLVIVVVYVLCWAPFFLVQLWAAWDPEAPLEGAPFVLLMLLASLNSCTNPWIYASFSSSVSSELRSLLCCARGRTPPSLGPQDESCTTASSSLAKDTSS

| Structure (SMILES) | V2 % inhibition @ 100 nM |
| --- | --- |
| Cc1cc(C(=O)N2Cc3ccc(C(=O)N(CCO)CCO)n3Cc3ccccc32)ccc1C1=CCCc2ccccc21 [Example 16, {10-[4-(3,4-Dihydro-naphthalen-1-yl)-3-methyl-benzoyl]-10,11-dihydro-5H-pyrrolo[2,1-c][1,4]benzodiazepin-3-yl}-3-carboxylic acid bis-(2-hydroxy-ethyl)-amide] | 46% |
| Cc1cc(C(=O)N2Cc3ccc(C(=O)N4CCN(CCO)CC4)n3Cc3ccccc32)ccc1C1=CCCCC1 [Example 17, {10-[4-(1-Cyclohex-1-en-1-yl)-3-methylbenzoyl]-10,11-dihydro-5H-pyrrolo[2,1-c][1,4]benzodiazepin-3-yl}[4-(2-hydroxyethyl)-1-piperazinyl]methanone] | 7% |
